Reference: the supplement of paper PMC11061612

Assays:
Experiment in all cases: Bliss excess, mean over the matrix (fraction); higher = more synergy
[1] = system: BFTC-905 (Bladder Carcinoma)
Outline: (§1)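 After 24 hours at 37°C and 5% CO2 in 1536-well plates, cells in DMEM/F12 or RPMI plus 10% FBS received two-drug dose matrices for 72 hours. Viability came from CellTiter-Glo 2.0 luminescence and was scaled as inhibition, anchored at 0 by vehicle wells and at 1 by blank wells. Combination Emax is taken as the second-highest inhibition in the matrix, and Bliss excess as the observed combination effect less EA + EB − EA·EB, with EA and EB the single-agent effects.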

MEL-JUSO (Melanoma) = system: MEL-JUSO (Melanoma)
Outline: as §1

[2] = system: SW1417 (Colorectal Carcinoma)
Outline: as §1

[3] = system: GR-ST (B-Lymphoblastic Leukemia)
Outline: as §1

[4] = system: SW837 (Colorectal Carcinoma)
Outline: as §1

[5] = system: NCI-H1792 (Lung Adenocarcinoma)
Outline: as §1

[6] = system: TOV-112D (Ovarian Carcinoma)
Outline: as §1

[7] = system: NCI-H847 (Small Cell Lung Carcinoma)
Outline: as §1

[8] = system: K-562 (Chronic Myelogenous Leukemia)
Outline: as §1

[9] = system: EVSA-T (Breast Carcinoma)
Outline: as §1

WIL2-NS (Non-Cancerous) = system: WIL2-NS (Non-Cancerous)
Outline: as §1

[10] = system: HDQ-P1 (Breast Carcinoma)
Outline: as §1

[11] = system: DND-41 (T-Lymphoblastic Leukemia)
Outline: as §1

[12] = system: CAMA-1 (Breast Carcinoma)
Outline: as §1

[13] = system: KARPAS-45 (T-Lymphoblastic Leukemia)
Outline: as §1

[14] = system: KM12 (Colorectal Carcinoma)
Outline: as §1

TC-71 (Ewing's Sarcoma) = system: TC-71 (Ewing's Sarcoma)
Outline: as §1

[15] = system: TE-6 (Esophageal Squamous Cell Carcinoma)
Outline: as §1

[16] = system: L-540 (Hodgkin's Lymphoma)
Outline: as §1

[17] = system: MKN28 (Gastric Carcinoma)
Outline: as §1

Row | Compound | Bliss excess [1] | Bliss excess (MEL-JUSO (Melanoma)) | Bliss excess [2] | Bliss excess [3] | Bliss excess [4] | Bliss excess [5] | Bliss excess [6] | Bliss excess [7] | Bliss excess [8] | Bliss excess [9] | Bliss excess (WIL2-NS (Non-Cancerous)) | Bliss excess [10] | Bliss excess [11] | Bliss excess [12] | Bliss excess [13] | Bliss excess [14] | Bliss excess (TC-71 (Ewing's Sarcoma)) | Bliss excess [15] | Bliss excess [16] | Bliss excess [17]
1 | CC1(C)CCC(CN2CCN(c3ccc(C(=O)NS(=O)(=O)c4ccc(NCC5CCOCC5)c([N+](=O)[O-])c4)c(Oc4cnc5[nH]ccc5c4)c3)CC2)=C(c2ccc(Cl)cc2)C1 [Venetoclax] + C[C@@H](Nc1cc(F)cc(F)c1)c1cc(C(=O)N(C)C)cc2c(=O)cc(N3CCOCC3)oc12 [AZD8186] (first compound max 1 µM, 7x7, partner max 3 µM) | -0.0516 | -0.0487 | -0.0747 | -0.0713 | -0.0419 | -0.035 | -0.0205 | 0.106 | 0.038 | 0.0269 | -0.0168 | -0.0215 | 0.0053 | -0.0706 | 0.201 | -0.0327 | -0.0381 | -0.04 | 0.027 | -0.0248
2 | COc1cccc(OCCCN)c1-c1cc(Nc2cnc(C#N)cn2)n[nH]1 [Prexasertib] + Cc1cc2ncnn2cc1Nc1ncc2c(n1)n(C1CCOCC1)c(=O)n2C [AZD7648] (first compound max 1 µM, 7x7, partner max 10 µM) | -0.0492 | -0.0383 | 0.001 | -0.0363 | -0.0143 | -0.0227 | -0.0241 | 0.0131 | -0.0282 | 0.017 | -0.0285 | -0.0236 | -0.0979 | -0.0206 | -0.0044 | -0.0399 | -0.0419 | 0.001 | -0.0223 | -0.0172
3 | Cc1cc2ncnn2cc1Nc1ncc2c(n1)n(C1CCOCC1)c(=O)n2C [AZD7648] + O=C(c1cc(Cc2n[nH]c(=O)c3ccccc23)ccc1F)N1CCN(C(=O)C2CC2)CC1 [Olaparib] (first compound max 10 µM, 7x7, partner max 10 µM) | -0.0299 | -0.0264 | -0.0597 | -0.0706 | -0.0246 | -0.033 | -0.0285 | -0.0071 | 0.0107 | -0.0077 | -0.0669 | 0.0133 | 0.0069 | -0.054 | 0.0031 | -0.035 | -0.0106 | -0.0419 | -0.0352 | -0.0411
4 | CN(CCO)CC[C@H](CSc1ccccc1)Nc1ccc(S(=O)(=O)NC(=O)c2ccc(N3CCC([C@@H](O)c4ccccc4-c4ccc(Cl)cc4)CC3)cc2)cc1S(=O)(=O)C(F)(F)F [AZD4320] + C=CCn1c(=O)c2cnc(Nc3ccc(N4CCN(C)CC4)cc3)nc2n1-c1cccc(C(C)(C)O)n1 [AZD1775] (first compound max 1 µM, partner max 1 µM) | -0.029 | 0.042 | -0.106 | -0.0585 | -0.0063 | 0.0128 | -0.0106 | 0.0494 | 0.0582 | 0.0394 | 0.0252 | 0.0886 | 0.049 | -0.0421 | -0.0041 | -0.0316 | 0.0339 | 0.0061 | 0.0594 | -0.0545
